# Results published in patent US11510886B2, “Metformin amino acid compounds and methods of using the same” (Laboratorios Silancs S.A. DE C.V., priority 2016, dated 2022).
# Entries after “also recorded” stand apart in the source; their conditions may differ. Counter-ions that a name gives are not always drawn. Like-named read-outs stand apart in the source and are kept apart here.
# Assays:
# RAW264.7 macrophages = assay: IL-10 expression in RAW264.7 macrophages stimulated with LPS and IFN-γ; assay type: cell-based
# Procedure: FIG. 92. […]. After several incubation times, cells were processed as shown in FIG. 79 for RT-qPCR analysis, and IL-10 relative quantification (RQ) was determined with a specific probe (Taqman®, Life Technologies) using HPRT-1 as a normalizer and non-stimulated cells as a reference point (time 0). In the Table in FIG. 92, the area under the curve (AUC) is indicated for each of the series.
# FIG. 93. The IL-10 expression depends on GPBP-1. […]. […] The silencing efficacy was tested by Western blot with RAW264.7 (WT) and pSi-GPBP-1 cell lysates (50 μg), using specific antibodies (right).
# FIG. 94. The IL-10 expression depends on cGPBP-1. In A, an assay scheme is shown; […]. […] In B, the relative expression of IL-10 in RAW264.7 macrophages cultured with conditioned media, obtained as specified in A, is shown. The analysis was carried out by quantitative RT and PCR, using HPRT-1 as a normalizer. In this case, the reference point were cells treated with a conditioned medium in absence of N26 (RQ=1 value), and the increased IL-10 expression was verified; the analysis included non-stimulated cells cultured in a fresh, non-conditioned medium (cells).
# C2C12 myotubes = assay: Glucose in C2C12 myotubes cultured with M1 macrophage conditioned medium; assay type: cell-based, Mice; details: macrophages treated with 10 mM, glucose adjusted to 100 mg/100 mL (FIG. 95)
# Procedure: FIG. 95. C2C12 myotubes, treated with a conditioned RAW264.7 M1 macrophages medium (stimulated with LPS and IFN-γ [M1]), accumulate glucose in the culture medium: SLN compounds reduce the “hyperglycemic” effect of the M1 medium. […]; then, the culture media were collected, and their glucose concentration adjusted to 100 mg/100 mL and used to culture C2C12 myoblasts that had been previously differentiated to myotubes in DMEM supplemented with 2% horse serum for 5 days. The glucose concentration in myotubes was determined at several times with a Glucocard (Arkray). C2C12 myotubes, cultured with conditioned media of non-stimulated (cells) macrophages, or similarly stimulated but not treated with a SLN (M1), were used as controls. The initial glucose levels (time 0) are used as a reference (100%) in each of the series.
# […]. Then the culture media were collected, their glucose concentration adjusted to 100 mg/100 mL and used to culture C2C12 myoblasts that had been previously differentiated to myotubes in DMEM supplemented with 2% horse serum for 5 days. The glucose concentration of the myotube cultures was determined at different times with Glucocard (Arkray). The controls used were the C2C12 cultured with media conditioned with no stimulated macrophages (cells) or with M1 conditioned media. The initial glucose levels (time 0) were used as a reference (100%) in each series.
# GPBP and VAPA = assay: Colocalization of GPBP with VAPA in C2C12 cells; assay type: cell-based, Mice; details: C2C12, 10 mM, 16 hours; p=0.0093 Control vs. SLN1, p=0.0001 Control vs. SLN10, p=0.0283 SLN10 vs SLN1
# Procedure: FIG. 74A. […] In FIG. 74A, C2C12 cells were differentiated for 3 days in DMEM supplemented with 2% horse serum. […] Subsequently, cells were washed with PBS (3×5 minutes) and incubated with mouse secondary anti-IgG antibodies, conjugated with Alexa Fluor 488, and goat anti-IgG antibodies, conjugated with TRITC (Molecular Probes) for 1 hour at RM in the dark; then, cells were washed again with PBS (3×5 minutes) and mounted for confocal microscopy observation. Afterwards, the images obtained were analyzed with the WCIF ImageJ software to quantify colocalization quotient between GPBP and VAPA. In the third column, the points at which there are similar expression levels of both GPBP and VAPA appear in white.
# [1] = test system: GPBP, LKB1/STRADα/MO25, AMPK, AS160; assay: In vitro phosphorylation of GPBP with LKB1 complex, AMPK and AS160; details: LKB1 complex without GPBP
# Description: Reactions were stopped with a reducing loading buffer, analyzed by SDS-PAGE, and electrotransferred to PVDF membrane. Membranes were exposed to autoradiography during the indicated exposition times (exp.). Arrows show the identity of the bands observed in autoradiographs.
# Arrows and lines to the right of the image show the identity of phosphorylated polypeptides. Upper images and those in the middle come from autoradiographs taken at several exposure times.
# To understand this phenomenon at the molecular level, we conducted in vitro phosphorylation experiments with GPBP and the commercial protein complex LKB1/STRADα/MO25 (Millipore) (FIG. 72). STRADα and MO25 are supporters necessary to activate LKB1. […] It cannot be excluded, however, that the simple interaction of kinases activates corresponding autophosphorylation processes.
# To further explain the above results, a more physiological approach in the in vitro assays was performed. A combination of LKB1/STRADα, GPBP, and AMPK/AS160 was used, i.e., each kinase was added with its own substrate except GPBP, which acted as both an enzyme and substrate at the same time (autophosphorylation) (FIG. 73).
# GPBP = GPBP Western blot of treated A549 cells; assay type: cell-based; details: 10 mM, 3 hours
# Procedure: After the incubation time, cells were washed twice with PBS and lysed in 25 mM Tris-HCl, pH 7.4, 140 mM NaCl, 3 mM KCl, 20 mM NaF, 1 mM PMSF, 10 μg/mL leupeptin, 1% Triton X-100 for 20 min at 4° C. The lysates were centrifuged at 20,000×g for 10 min at 4° C., supernatants were recovered, and protein concentration determined
# Equal amounts of each lysate (40 μg) were analyzed by Western blot, with monoclonal antibodies against GPBP N27 (Fibrostatin SL) and against tubulin (Sigma). Electrophoresis was performed in polyacrylamide gel (6.5%) with SDS, after which electroblotting was carried out to PVDF membrane (Immobilon P, Millipore Merck). After transfer, the membranes were blocked in 5% skim milk in 25 mM Tris-HCl, pH 7.5, 150 mM NaCl, 0.05% Tween-20 (TBST) for 45 min, and then incubated with primary antibodies diluted in blocking solution for 16 hours at 4° C. Thereafter, the membranes were washed with TBST (3×5 minutes) and incubated with secondary antibodies against mouse IgG, conjugated to horseradish peroxidase (HRP) (Sigma) for 1 hours at room temperature while stirring. After further washes with TBST (3×5 minutes), the chemiluminescence disclosure was performed by using the ECL Prime reagent (GE Healthcare) and the image generation system ImageQuant LAS 4000 Mini (GE Healthcare).
# The Western blots disclosure images were analyzed with the ImageJ WCIF program.
# [2] = test system: RAW264.7 macrophages and L1 adipocytes co-cultures; assay: Glucose consumption in macrophage and adipocyte co-cultures; assay type: cell-based, Mice; details: 10 mM, 30 hours (FIG. 80)
# [3] = Metformin association with lysine in aqueous solution (1H NMR titration); assay type: physicochemical; details: 1×PBS, pH 7.5, WINEQNMR2
# Procedure: Specifically, 500 μL of a 10 mM lysine solution in buffer […] were introduced in an NMR tube, and the pH was adjusted to 7.5; moreover, […] of deuterated methanol was added, and the NMR proton spectrum was recorded (^1H). […] Increasing amounts of the metformin dissolution were added to the amino acid dissolution, and the ^1H NMR spectrum was recorded after each addition until reaching 20 equivalents.
# The alpha proton signal of lysine (triplet to 3.76 ppm, FIG. 100) first shifted to lower […] and then to higher values. […] The complexation constant was calculated to be 828±42 (FIG. 101).
compound,measurement,setting,value
"CN(C)C(=N)N=C(N)N [Metformin hydrochloride, metformin hydrochloride, reference compound]",IL-10 expression,"RAW264.7 macrophages; 10 mM, LPS and IFN-γ (FIG. 92)",increase IL-10 expression
same,dependence of IL-10 expression on GPBP expression,RAW264.7 macrophages; pSi-GPBP-1 macrophages (FIG. 93),virtually GPBP independent
same,Body weight (g) On administration day,"rat, in vivo, 250 mg/kg",190.39 ± 9.88 g
same,Body weight (g) On distribution day,"rat, in vivo, 250 mg/kg",186.93 ± 10.39 g
same,Body weight (g) On distribution day,"rat, in vivo, 750 mg/kg",189.03 ± 15.13 g
same,glucose concentration in myotubes kept in M1 macrophage-conditioned medium,"C2C12 myotubes; listed as SLN1, hydrochloride",slowed progression towards “hyperglycemia”
same,glucose concentration in myotubes kept in M1 macrophage-conditioned medium,"C2C12 myotubes; listed as metformin HCl, hydrochloride",slowed down the progression towards hyperglycemia
same,colocalization of GPBP with VAPA,GPBP and VAPA,reduced significantly
metformin lysinate,LKB1 autophosphorylation and STRADα phosphorylation,[1],trigger a discrete LKB1 autophosphorylation
same,IL-10 expression,RAW264.7 macrophages,increase IL-10 expression; also recorded: markedly superior
same,dependence of IL-10 expression on GPBP expression,RAW264.7 macrophages,depended largely on the GPBP expression
same,GPBP polypeptides reactive with N27,"GPBP; pH 7.5, listed as SLN10",more abundant in culture extracts treated with SLN10; also recorded: shifts to positions of less molecular weight
same,GPBP polypeptides reactive with N27,GPBP; pH 9.3,shifts to positions of less molecular weight
same,blood glucose level of animal ID93,"750 mg/kg, fifth day, six hours after the glucose overload",16 mg/dL
same,Body weight (g) On administration day,"Groups B-K, 250 mg/kg, Mean ± SD",189.83 ± 11.17 g
same,Body weight (g) On distribution day,"Groups B-K, 250 mg/kg, before dosing, Mean ± SD",184.42 ± 11.94 g
same,Body weight (g) On distribution day,"Groups L-U, 750 mg/kg, before dosing, Mean ± SD",186.73 ± 8.05 g
same,Body weight (g) On first administration day,"Groups L-U, 750 mg/kg, first column of this head, Mean ± SD",203.38 ± 13.38 g
same,Body weight (g) On first administration day,"Groups L-U, 750 mg/kg, second column of this head, Mean ± SD",192.83 ± 9.65 g
same,mortality and clinical signs,"glucokinetic groups, 750 mg/kg for five days, 750 mg/kg","hypothermia, lack of activity and tear excess"
same,mortality and clinical signs,"glucokinetic groups, 750 mg/kg for five days, listed as metformin lysinate, 750 mg/kg",severe hypoglycemia
same,mortality and clinical signs,"pharmacokinetic assay, single 250 mg/kg",respiratory noises
same,glucose consumption of co-cultures,[2],stronger
same,glucose concentration in myotubes kept in M1 macrophage-conditioned medium,C2C12 myotubes,reduced the glucose concentration to hypoglycemic levels
same,glucose concentration in myotubes kept in M1 macrophage-conditioned medium,C2C12 myotubes; listed as SLN10,took them to “hypoglycemic” levels
same,complexation constant,[3],828±42
same,colocalization of GPBP with VAPA,GPBP and VAPA,reduced significantly; also recorded: more intensely than SLN1
